Laboratory results: publication PMC4515084 (Chemmedchem, 2015)
One block for each compound: values may come before it.

Legend:
[1] = Pharmacokinetic studies in rats
human CYP 2C9 = human CYP 2C9 (Homo sapiens, UniProt P11712); assay: CYP inhibition assay, pooled human liver microsomes, diclofenac substrate; type: in vitro ADME
human CYP 3A4 = human CYP 3A4 (Homo sapiens, UniProt P08684); assay: CYP inhibition assay, pooled human liver microsomes, midazolam substrate; type: in vitro ADME
[2] = target: porcine pancreatic elastase (PPE) (Sus scrofa, UniProt P00772); assay: Serine protease selectivity: PPE; type: biochemical; details: listed as BAY 85-8501
porcine pancreatic elastase (PPE), sequence (P00772 27-266): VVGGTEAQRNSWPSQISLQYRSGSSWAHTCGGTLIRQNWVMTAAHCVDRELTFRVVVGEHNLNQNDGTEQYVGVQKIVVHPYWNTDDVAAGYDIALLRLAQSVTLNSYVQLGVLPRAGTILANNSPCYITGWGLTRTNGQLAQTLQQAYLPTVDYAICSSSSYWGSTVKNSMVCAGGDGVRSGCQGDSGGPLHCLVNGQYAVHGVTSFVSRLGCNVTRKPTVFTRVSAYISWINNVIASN

[3] = test system: PPE-induced acute lung injury in mice; assay: PPE-induced acute lung injury; type: in vivo, mouse; details: PPE noxa
[4] = test system: HNE-induced acute lung injury in mice; assay: HNE-induced acute lung injury; type: in vivo, mouse; details: administered 1 h prior to the HNE noxa
Solubility = type: physicochemical

human CYP 2C9, sequence (P11712 whole entry): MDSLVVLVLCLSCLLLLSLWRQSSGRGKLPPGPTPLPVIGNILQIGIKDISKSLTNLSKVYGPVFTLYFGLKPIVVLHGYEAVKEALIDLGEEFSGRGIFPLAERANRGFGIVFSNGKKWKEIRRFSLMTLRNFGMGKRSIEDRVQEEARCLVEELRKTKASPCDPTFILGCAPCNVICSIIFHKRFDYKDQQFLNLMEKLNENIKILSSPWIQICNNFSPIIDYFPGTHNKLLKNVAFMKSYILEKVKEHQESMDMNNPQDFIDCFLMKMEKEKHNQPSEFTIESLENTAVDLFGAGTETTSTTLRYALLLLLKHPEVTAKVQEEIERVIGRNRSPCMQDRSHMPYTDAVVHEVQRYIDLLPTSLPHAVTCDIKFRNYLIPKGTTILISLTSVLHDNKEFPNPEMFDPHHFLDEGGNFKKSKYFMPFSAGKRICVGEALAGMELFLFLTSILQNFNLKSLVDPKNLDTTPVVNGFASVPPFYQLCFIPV
human CYP 3A4, sequence (P08684 whole entry): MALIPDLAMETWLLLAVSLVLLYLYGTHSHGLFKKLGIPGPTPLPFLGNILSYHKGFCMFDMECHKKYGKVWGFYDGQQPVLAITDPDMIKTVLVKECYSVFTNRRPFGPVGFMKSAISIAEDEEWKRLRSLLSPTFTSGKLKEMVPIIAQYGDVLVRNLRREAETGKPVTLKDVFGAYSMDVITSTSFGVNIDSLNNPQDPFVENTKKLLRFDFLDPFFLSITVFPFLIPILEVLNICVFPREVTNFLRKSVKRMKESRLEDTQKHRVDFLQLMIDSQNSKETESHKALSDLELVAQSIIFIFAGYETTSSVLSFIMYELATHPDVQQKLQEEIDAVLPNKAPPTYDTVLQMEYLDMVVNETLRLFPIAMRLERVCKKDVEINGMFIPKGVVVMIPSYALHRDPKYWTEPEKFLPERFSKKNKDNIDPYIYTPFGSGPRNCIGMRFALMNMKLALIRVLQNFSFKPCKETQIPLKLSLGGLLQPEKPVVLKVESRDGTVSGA

SMILES: CC1=C(C(=O)OCCO)[C@@H](c2ccc(C#N)cc2)NC(=O)N1c1cccc(C(F)(F)F)c1 [Compound 17]
clearance ([1]; rat, in vivo, iv, 0.3 mg kg^−1): 35 mL/min/kg
clearance ([1]; rodents / rats): medium clearance

SMILES: CC(=O)C1=C(C)N(c2cccc(C(F)(F)F)c2)C(=O)N[C@@H]1c1ccc(C#N)nc1 [Compound 20]
clearance ([1]; rat, in vivo, iv, 0.3 mg kg^−1): 33.3 mL/min/kg
clearance ([1]; rodents / rats): medium clearance

SMILES: CC1=C(C#N)[C@@H](c2ccc(C#N)cc2S(C)(=N)=O)N(C)C(=O)N1c1cccc(C(F)(F)F)c1 (stereo partly shown) [Compound 30]
IC50 (human CYP 2C9): > 50 µM
solubility (Solubility): improved solubility
IC50 (human CYP 3A4): > 50 µM

Now from value to compound, other results behind:

inhibition toward CYP 2C9 (human CYP 2C9; up to a concentration of 50 μM): no observable inhibition
inhibition toward CYP 3A4 (human CYP 3A4; up to a concentration of 50 μM): no observable inhibition
SMILES: CC1=C(C#N)[C@@H](c2ccc(C#N)cc2)N(CC(N)=O)C(=O)N1c1cccc(C(F)(F)F)c1 [Compound 23]

effect on PPE [2]: no inhibitory effect
clearance ([1]; rat, in vivo, iv, 0.3 mg kg^−1): 8.33 mL/min/kg
SMILES: CC1=C(C#N)[C@@H](c2ccc(C#N)cc2S(C)(=O)=O)N(C)C(=O)N1c1cccc(C(F)(F)F)c1 [Compound 29, (4S)-4-[4-Cyano-2-(methylsulfonyl)phenyl]-3,6-dimethyl-2-oxo-1-[3-(trifluoromethyl)phenyl]-1,2,3,4-tetrahydropyrimidine-5-carbonitrile]
primary lung injury [3]: could not prevent
development of lung injury and subsequent inflammation [4]: completely prevented
